Assay results published in PubChem BioAssay (NCI).
Where “and” joins values, the source holds several entries; their conditions need not be identical. Equal entries are not always repeated.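 Five compound concentrations were applied to cells in 96-well plates for 48 hours; endpoints were derived by simple linear interpolation of the resulting dose-response curve. At the GI50, growth is halved. TGI marks complete inhibition of growth.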

Key:
Assay in all cases: inhibition of tumour cell growth, NCI panel, 48 h
A498 renal = tested on: A498 renal
CAKI-1 renal = tested on: CAKI-1 renal
HCC-2998 colon = tested on: HCC-2998 colon
HCT-15 colon = tested on: HCT-15 colon
MOLT-4 leukemia = tested on: MOLT-4 leukemia
RXF 393 renal = tested on: RXF 393 renal
SK-MEL-5 melanoma = tested on: SK-MEL-5 melanoma
SNB-75 CNS = tested on: SNB-75 CNS
TK-10 renal = tested on: TK-10 renal
MDA-MB-231 breast = tested on: MDA-MB-231 breast

Structure (SMILES)	TGI (A498 renal)	TGI (CAKI-1 renal) [µM]	TGI (HCC-2998 colon)	TGI (HCT-15 colon) [µM]	TGI (MOLT-4 leukemia) [µM]	TGI (RXF 393 renal) [µM]	TGI (SK-MEL-5 melanoma) [µM]	TGI (SNB-75 CNS) [µM]	TGI (TK-10 renal) [µM]	GI50 (CAKI-1 renal) [µM]	GI50 (HCC-2998 colon) [µM]	GI50 (HCT-15 colon) [µM]	GI50 (MDA-MB-231 breast) [µM]	TGI (MDA-MB-231 breast) [µM]	GI50 (MOLT-4 leukemia) [µM]	GI50 (RXF 393 renal) [µM]	GI50 (SK-MEL-5 melanoma) [µM]	GI50 (SNB-75 CNS) [µM]	GI50 (TK-10 renal) [µM]	GI50 (A498 renal) [µM]
Cc1c(C(Cc2ccccc2N(C)C(=O)/C=C\C(=O)O)c2c[nH]c3ccccc23)c2ccccc2n1C (centres undefined)	35.6 µM	36	30.9 µM	29.3	53.8	27.3	29.8	33.7	33.8	–	–	–	–	–	–	–	–	–	–	–
NC1=C(O)c2cccc3cccc(c23)C1=O	> 100 µM	> 100	> 100 µM	> 100	> 100	> 100	> 100	> 100	> 100	–	–	–	–	–	–	–	–	–	–	–
O=C(O)/C=C/c1ccc(O)c(O)c1	> 100 µM	> 100	> 100 µM	> 100	> 100	> 100	> 100	> 100	> 100	–	–	–	–	–	–	–	–	–	–	–
Cc1cc(N(CCC#N)CCC#N)ccc1/C=C(\NC(=O)/C=C/c1ccccc1)C(=O)N=[N+]=[N-]	> 100 µM	> 100	> 100 µM	> 100	> 100	98.5	> 100	62	> 100	–	–	–	–	–	–	–	–	–	–	–
CC(=O)N1C/C(=C\c2ccccc2)C(=O)/C(=C/c2ccccc2)C1	31.8 µM	35.5	25 µM	23.7	23	30.4	12.9	40.9	34.8	–	–	–	–	–	–	–	–	–	–	–
Cc1c(Cl)cccc1C(=O)Nc1nc2c(s1)CN(C(=O)Nc1cccc(C(F)(F)F)c1)CC2	–	> 50	8.52 µM	> 50	> 50	0.349	3.75	3.52	> 50	0.216	0.647	0.129	0.59	> 35.6	0.291	0.106	0.182	0.104	1.56	–
COC(=O)C(=O)C(C(=O)C(=O)Nc1ccc(Cl)c(Cl)c1)c1nc2ccc(C(=O)c3ccccc3)cc2[nH]c1=O (centres undefined)	> 100 µM	> 100	–	–	> 100	> 100	> 100	> 100	> 100	–	–	–	–	> 100	–	–	–	–	–	–
O=C1C2C3CC4C5C3C1C5C1(SCCS1)C42 (centres undefined)	> 100 µM	> 100	> 100 µM	> 100	> 100	> 100	> 100	> 100	> 100	–	–	–	–	–	–	–	–	–	–	–
C/C(=N/NC(=O)c1ccccc1S(N)(=O)=O)C(CN1CCCCC1)C(C1=C(O)C2C=CC=CC2OC1=O)c1ccccc1 (centres undefined)	> 100 µM	> 100	–	> 100	–	68.4	> 100	> 100	> 100	–	–	–	–	–	–	–	–	–	–	–
CN(C)CCNC(=O)c1cc2c3cc(Cl)ccc3[nH]c2c2ncccc12	13.1 µM	19.6	–	4.9	4.27	4.28	2.69	15.8	13.4	3.52	–	1.84	1.98	9.77	1.54	1.74	1.34	3.85	3.81	3.52
Cn1cc(C2NC(=O)c3ccccc3N2)c2ccccc21 (centres undefined)	> 100 µM	> 100	7.45 µM	8.48	–	0.704	5.64	–	> 100	–	–	–	–	> 100	–	–	–	–	–	–
CC(C)(CN1CCCCC1)C(=O)/C=C/c1ccccc1	57.8 µM	48	27.9 µM	67.2	41.4	24.7	25.8	39.3	30.5	–	–	–	–	–	–	–	–	–	–	–
COc1nc(NC2OC(COC(C)=O)C(OC(C)=O)C(OC(C)=O)C2OC(C)=O)c(N=CC=Nc2c(NC3OC(COC(C)=O)C(OC(C)=O)C(OC(C)=O)C3OC(C)=O)nc(OC)[nH]c2=O)c(=O)[nH]1 (centres undefined)	> 100 µM	> 100	> 100 µM	–	> 100	–	> 100	> 100	> 100	–	–	–	–	–	–	–	–	–	–	–
COc1cc(/C=C2\CC3C4CC=C5CC(OC(C)=O)CC[C@]5(C)C4CC[C@]3(C)C2=O)ccc1OCCN1CCCC1 (some centres undefined)	43.5 µM	27	25 µM	5.3	8.5	11.6	2.86	–	19.6	13.1	12.5	1.91	3.39	11.2	1.87	3.01	1.38	–	7.25	23.7
N#CC(C(=O)CCCC(=O)Nc1ccccc1[N+](=O)[O-])c1c(Cl)cccc1Cl (centres undefined)	> 100 µM	> 100	> 100 µM	> 100	> 100	> 100	> 100	> 100	> 100	–	–	–	–	–	–	–	–	–	–	–
O=C(/C=C/c1ccccc1)NC1C=Nc2ccc([N+](=O)[O-])cc2NC1=O (centres undefined)	> 100 µM	> 100	> 100 µM	> 100	> 100	> 100	> 100	> 100	> 100	–	–	–	–	–	–	–	–	–	–	–
O=C(CCc1n[nH]c(=S)o1)Nc1cc(Cl)ccc1Cl	> 100 µM	> 100	> 100 µM	38.8	> 100	–	> 100	> 100	> 100	–	–	–	–	–	–	–	–	–	–	–
COc1ccc(-c2csc3c2-n2cccc2C3=O)cc1	1.17 µM and 3.15 µM	> 100	2.56 µM and 5.8 µM	> 100	> 87.7	–	–	0.434	> 100	0.0528	0.232	0.0276	–	> 100	0.0352	–	0.0236	–	–	0.124
COC(=O)C(=O)C(C#N)c1nc2ccccc2s1 (centres undefined)	> 100 µM	> 100	> 100 µM	> 100	> 100	> 100	> 100	> 100	> 100	–	–	–	–	–	–	–	–	–	–	–
O=C(Cc1ccccc1)NN1C(=O)C(Cl)C1c1ccc(Cl)cc1 (centres undefined)	–	> 100	> 100 µM	> 100	> 100	> 100	> 100	> 100	> 100	–	–	–	–	–	–	–	–	–	–	–
